Like-named read-outs stand apart in the source and are kept apart here.

Series [1] addresses T1, human DDX3 (helicase activity) (Homo sapiens, UniProt O00571).
T1 construct: made in house
Briefly: Human DDX3 helicase activity assay (ds to ss nucleic acid unwinding). It is filed as biochemical. The conditions noted are these: for IC50: anti-helicase activity, na = not active, read-out: Helicase ID50. On the procedure: The helicase activity of DDX3 wt and mutant forms was monitored by measuring the conversion of a double stranded (ds) DNA or RNA (labelled at the 5′-end of one strand with a 6-FAM fluorescent group or P^32, respectively) into single stranded (ss) nucleic acid. Reactions were performed in 50 mM TrisHCl pH 7.5, 1 mM DTT, 0.2 mg/ml BSA, 5% glycerol and 100 μM ATP, 10 mM MgCl2 at 37° C. degrees for 10′ and stopped by adding EDTA 50 mM pH 8. Products were separated through non-denaturating 8% PAGE at 5 W for 2 hours in TBE buffer at 4° C. Substrates and products were quantified by laser scanning densitometry (Thyphoon-TRIO, GE Healthcare).
(§1) Human recombinant DDX3 was cloned, expressed and purified as described (Franca et al. Proteins 2007, 67, 1128-37).
Compounds were obtained by application of a virtual docking protocol on the RNA-binding site identified in the homology model developed in the present invention. These compounds were commercially available (EI-compounds in Table 4). A few other compounds (25-31, EXAMPLE 6) were rationally designed to target the above mentioned RNA-binding site and then synthesized. All the compounds were tested for anti-helicase activity.

For series [2], the target named is T2, human DDX3 (ATPase activity) (Homo sapiens, UniProt O00571).
T2 construct: made in house; host or cells: E. coli
T2 sequence (O00571 whole entry): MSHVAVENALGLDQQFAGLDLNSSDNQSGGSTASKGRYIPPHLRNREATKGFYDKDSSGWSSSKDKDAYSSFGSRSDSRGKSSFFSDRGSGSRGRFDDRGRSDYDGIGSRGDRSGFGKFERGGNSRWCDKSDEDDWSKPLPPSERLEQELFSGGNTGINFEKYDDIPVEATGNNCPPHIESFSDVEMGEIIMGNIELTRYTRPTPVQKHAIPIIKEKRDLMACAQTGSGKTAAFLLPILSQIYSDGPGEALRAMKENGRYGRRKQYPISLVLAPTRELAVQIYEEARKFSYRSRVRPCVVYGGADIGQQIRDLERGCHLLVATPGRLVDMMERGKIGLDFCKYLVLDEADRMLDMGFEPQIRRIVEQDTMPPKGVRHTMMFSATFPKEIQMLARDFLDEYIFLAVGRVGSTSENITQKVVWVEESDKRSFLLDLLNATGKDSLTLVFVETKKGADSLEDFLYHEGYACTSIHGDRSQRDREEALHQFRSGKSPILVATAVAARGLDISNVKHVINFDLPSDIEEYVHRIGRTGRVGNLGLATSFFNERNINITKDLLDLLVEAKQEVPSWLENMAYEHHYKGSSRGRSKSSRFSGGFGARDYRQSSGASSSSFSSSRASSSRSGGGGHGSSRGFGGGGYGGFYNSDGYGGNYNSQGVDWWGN
Briefly: Human DDX3 ATPase activity assay (luciferase-based luminescence). It counts as biochemical. The settings on record: for Ki: DDX3 ATPase activity, read-out: Ki (μM), apparent equilibrium dissociation constant for the inhibitor to the target enzyme DDX3. On the procedure:
ATPase activity was tested with a luciferase-based luminescence assay (Easylite-Kinase, Perkin Elmer) on 96 wells microtiter plates. Briefly, recombinant purified human DDX3 (50-100 ng) was incubated in a 15 μL total reaction volume with reaction buffer (25 mM TrisHCl pH 7.5, 5 mM MgCl2), in the presence of increasing amounts of ATP and/or different combinations of ATP and the inhibitor to be tested. Reference curves in the absence of inhibitor (giving the 100% of enzymatic activity) and in the absence of enzyme (giving the baseline), were also included in each experiment. Reading was performed with a Microbeta Trilux (Perkin Elmer) luminometer, according to the manufacturer's protocol.
ATPase reactions were performed as described, in the presence of increasing amounts of inhibitor and variable ATP concentrations. Variations of the initial velocities of the reaction as a function of ATP concentrations in the absence or presence of 4 were analyzed with the equation: […]
Variation of the % inhibition as a function of compound FE15 at different ATP concentrations were fitted to the equation for cooperative binding: […]
where Vmax is the apparent maximal rate of the reaction in the absence of the inhibitor, [I] is the variable inhibitor concentration, n is the cooperativity index and Ki(app) is the apparent inhibition constant. Comparatively, fitting was done with the same Eq. (2) where n was kept fixed at the value of 1 (non-cooperativity hypothesis). F test was used to compare the two fittings and p value was calculated.
as §1
The anti-DDX3 activity of the compounds of the invention was evaluated by in vitro ATPase activity assay using the recombinant human DDX3 protein produced in E. coli. The potency of inhibition (Ki) for each molecule was calculated, representing the concentration of the inhibitor able to reduce the DDX3 ATPase activity by 50%

The subject of series [3] is cervical cancer HeLa cell line. The series can be described thus: Antiproliferative activity against HeLa cells (CellTiter viability assay). The conditions noted are these: Homo sapiens. It counts as cell-based. On the procedure:
Selected compounds from Table 1 were tested against the cervical cancer HeLa cell line for antiproliferative activity. Cell viability was measured with the CellTiter viability assay (Table 2). Table 3 lists the calculated antiproliferative potencies (EC50, dose required to suppress 50% of cell viability) for a series of representative compounds of the invention.

The subject of the next series is HIV-1. The series can be described thus: Antiviral assay, HIV-1 replication in infected PBMCs (viral RNA in supernatant). The conditions noted are these: Human immunodeficiency virus 1, PBMC, 72 h, read-out: EC50, anti-HIV activity. It counts as cell-based. On the procedure:
FIG. 1. A) Antiviral activity (expressed as % of viral load with respect to the control) of compounds FE56 and FE66 at 0.3 μM and 3 μM doses against single round HIV-1 replication in HeLaCD4+ cells infected with a wild type HIV-1 strain. Measurements were performed at 72 h post infection. B) Antiviral activity of compounds FE15 and FE66 on HIV-1 replication in phytohemagglutinin-stimulated peripheral blood mononuclear cells (PBMCs) […] with HeLa CD4^+-cell culture supernatants containing wild type HIV. Compounds were tested at 50 μM (FE15) and 5 μM (FE66). The HIV-1 RNA was quantified in the cell culture supernatant after 3, and 5 days of incubation. Results are expressed as HIV RNA copies/ml. Control (white bars).
FIG. 2. Antiviral activity of DDX3 inhibitors. A) Comparison of the antiviral activity (expressed as % of viral RNA with respect to the control) on infected PBMCs of a fixed dose of selected inhibitors. Measurements were performed at 72 h post infection. Values are the means of three independent replicates. Error bars are ±SD. White bars: control without drugs; dark grey bar: positive control with AZT (0.01 μM); black bar: first generation inhibitor FE15 (50 μM); light grey bars: second generation DDX3 inhibitors FE66, 11d and 38 (3 μM). B) Dose-response curves for the inhibiton of HIV-1 replication (expressed as % of viral RNA with respect to the control) in infected PBMCs by FE15 (circles) and 38 (triangles). Measurements were performed at 72 h post infection. Values are the means of three independent replicates. Error bars are ±SD.
In detail, 0.5 μg of each HIV-1 plasmid construct was transfected into CD4 HeLa cells by using the lipofectin reagent, according to the recommendations of the manufacturer (Invitrogen, Groningen, The Netherlands). After 3 days of incubation at 37° C., the cell supernatants, which contained reconstituted viable recombinant viruses, were collected. Quantification of the newly produced recombinant strains was obtained by determination of the HIV RNA copy number in the cell culture supernatants. Successively, 10 ml of transfected HeLa CD4^+-cell culture supernatants containing wild-type, and mutated recombinant HIV strain […], was used to infect aliquots of 10×10^6 phytohemagglutinin-stimulated peripheral blood mononuclear cells (PBMCs) from HIV-seronegative blood donors. After 4 h of incubation, supernatants were removed and infected PBMCs were incubated at 37° C. in 10 ml of RPMI 1640 medium (Eurobio, Les Ulis Cedex B, France) supplemented with 20% fetal calf serum (Life Technologies, Ltd., Paisley, Scotland), 2 mM l-glutamine, 100 U of penicillin per ml, 100 μg of streptomycin per ml, 10% interleukin-2 (ZeptoMetrix Co., Buffalo, N.Y.), 5 μg of hydrocortisone (Sigma Chemical Co.) per ml and with fourfold dilutions of antiretroviral drugs. No-drug controls for each drug dilution were included in each assay. After 3, 5 and 7 days of incubation the HIV-1 RNA in the cell culture supernatant was quantified. Recombinant HIV-1 strains from treatment-naive patients and multidrug resistance-associated changes were assayed in parallel. The degree of inhibition of viral replication was measured by determining the HIV-1 RNA level in the supernatants of cell cultures and was expressed as the fold increase in the 50% inhibitory concentrations (IC50s) for resistant recombinant HIV-1 variants compared with the IC50s for the wild-type recombinant variant. Each test was performed in triplicate.

Where [4] appears, read: 48 hours, read-out: EC50 (μM) 48 hours, dose required to suppress 50% of cell viability.
Where [5] appears, read: 72 hours, read-out: EC50 (μM) 72 hours, dose required to suppress 50% of cell viability.

T1 sequence (O00571 whole entry): as above

For `Cc1ccccc1NC(=O)Nc1cccc(NC(=O)Nc2ccccc2C)c1` [EI-01], the IC50 in series [1] came out at 250 µM; in series [2] (ATPase activity, read-out: ATPase ID50) it was 245 µM. In addition, the “fold higher potency against the helicase with respect to the ATPase activity” value in series [1] (helicase versus ATPase ID50) was “did not discriminate between ATPase and helicase activities”.

Regarding `O=C(Nc1cccc([N+](=O)[O-])c1)Nc1cccc([N+](=O)[O-])c1` [Compound 29, 1,3-bis(3-nitrophenyl)urea], the IC50 in series [1] is 52 µM.

By EC50 is commonly meant the concentration needed to bring the measured effect to its halfway point. Regarding `CCN(CC)c1nc(NCc2ccccc2)nc(N/N=C/c2ccccc2O)n1` [Compound 15k, (E)-2-((2-(4-(benzylamino)-6-(diethylamino)-1,3,5-triazin-2-yl)hydrazono)methyl)phenol], the EC50 was found to be 3 µM in series [3] (setting [4]) and 1 µM in series [3] (setting [5]). The Ki in series [2] is 0.5 µM.

Regarding `Cc1ccccc1NC(=O)Nc1cccc(N)c1` [Compound 26, 1-(3-aminophenyl)-3-o-tolylurea], the IC50 in series [1] is 5.7 µM. Moreover, in series [1] (ratio of helicase ID50), the “fold improvement in anti-helicase activity with respect to EI01” value is reported as 43 fold.

On to `CC(=O)Nc1ccc(/C(C)=N/Nc2nc(Nc3ccccc3)nc(Nc3ccccc3)n2)cc1` [FE-56F], for which the EC50 worked out at 10 µM in series [3] (setting [4]) and 5 µM in series [3] (setting [5]). Further, in series [2], the Ki was 0.3 µM.

As to `Clc1ccc(-c2ccc(/C=N/Nc3nc(Nc4ccccc4)nc(N4CCCCC4)n3)o2)cc1` [FE-56N], the figures for the EC50 in series [3] (setting [4]) and in series [3] (setting [5]) were 25 µM and 4 µM, respectively. Further, the Ki in series [2] was determined as 0.4 µM.

Regarding `O=C(Nc1cccc(C(=O)Nc2ccccc2Cl)c1)Nc1ccccc1Cl` [EI-01B], the IC50 in series [1] was 1300 µM.

In the case of `CCN(CC)c1nc(NCc2ccccc2)nc(N/N=C2/C(=O)Nc3ccccc32)n1` [Compound 14g, (E)-3-(2-(4-(benzylamino)-6-(diethylamino)-1,3,5-triazin-2-yl)hydrazono)indolin-2-one], the EC50 in series [3] (setting [4]) and in series [3] (setting [5]) was 10 µM in each case. Besides, in series [2], the Ki came out at 0.1 µM.

Turning to `Cc1[nH]c2ccccc2c1/C=N/Nc1nc(Nc2ccc(F)cc2)nc(N2CCOCC2)n1` [FE-56M], the EC50 in series [3] (setting [4]) is 10 µM; in series [3] (setting [5]), 5 µM. The Ki in series [2] is 0.2 µM.

Take `Cc1ccccc1NC(=O)Nc1cccc(NC(=O)Nc2cccc(NC(=O)Nc3ccccc3C)c2)c1` [Compound 31, 1,3-bis(3-{[(2-methylphenyl)carbamoyl]amino}phenyl)urea]: the IC50 in series [1] was determined as 1300 µM.

Take `Cc1ccc(NC(=O)c2cccc(NC(=O)Nc3cccc(C)c3C)c2)cc1C` [EI-01A]: the IC50 in series [1] was determined as 131 µM.

As to `Nc1cccc(NC(=O)Nc2cccc(N)c2)c1` [Compound 30, 1,3-bis(3-aminophenyl)urea], the IC50 in series [1] was found to be 24 µM.

The melting point is the temperature of the solid-liquid transition. In turn, `O=C(CCN1C(=O)/C(=C/c2cc(F)cc(F)c2)SC1=S)Nc1ccccc1O` [Compound 35c, 3-((Z)-5-(3,5-Difluorobenzylidene)-4-oxo-2-thioxothiazolidin-3-yl)-N-(2-hydroxyphenyl) propanamide] returned a melting point of 235 to 237 °C. For the same molecule, the Ki in series [2] came to 0.5 µM.

As for `Oc1ccccc1/C=N/Nc1nc(Nc2ccc(F)cc2)nc(N2CCOCC2)n1` [Compound 11d, (E)-2-((2-(4-(4-Fluorophenylamino)-6-morpholino-1,3,5-triazin-2-yl)hydrazono)methyl)phenol], the melting point was 234 °C. For the same molecule, the EC50 in the series on HIV-1 amounted to 2.5 µM. Moreover, the Ki in series [2] stood at 0.4 µM.

`O=C(CCN1C(=O)/C(=C/c2ccc3c(c2)OCO3)SC1=S)Nc1ccccc1O` [Compound 35f, 3-((Z)-5-((Benzo[d][1,3]dioxol-5-yl)methylene)-4-oxo-2-thioxothiazolidin-3-yl)-N-(2-hydroxyphenyl)propanamide] gave a melting point of 240 to 241 °C. Also, the Ki in series [2] came out at 1 µM.

Regarding `O=C(CCN1C(=O)/C(=C/c2cccc(F)c2)SC1=S)Nc1ccccc1[N+](=O)[O-]` [Compound 35h, 3-((Z)-5-(3-Fluorobenzylidene)-4-oxo-2-thioxothiazolidin-3-yl)-N-(2-nitrophenyl)propanamide], the melting point was in the range of 207 to 208 °C. Further, the Ki in series [2] was 7.6 µM.

Turning to `Oc1ccccc1/C=N/Nc1nc(NCc2cccc(Cl)c2)nc(N2CCOCC2)n1` [Compound 15j, (E)-2-((2-(4-(3-chlorobenzylamino)-6-morpholino-1,3,5-triazin-2-yl)hydrazono)methyl)phenol], the melting point fell in the range of 163.5 to 164 °C. Besides, the Ki in series [2] was 62 µM.

Consider `Cc1cccc(/C=C2\SC(=S)N(CCC(=O)Nc3ccccc3O)C2=O)c1` [Compound 35d, 3-((Z)-5-(3-Methylbenzylidene)-4-oxo-2-thioxothiazolidin-3-yl)-N-(2-hydroxyphenyl) propanamide], for which the melting point is 208 to 209 °C. Moreover, the Ki in series [2] came to 97 µM.

Consider `COc1ccc(Nc2nc(NCc3ccco3)nc(N/N=C/c3cc([N+](=O)[O-])ccc3O)n2)cc1` [FE-56A], for which the EC50 in series [3] (setting [4]) turned out to be 8 µM; in series [3] (setting [5]), 4 µM. Also, the Ki in series [2] is 31.7 µM.

The record behind these values is patent US20120202814A1, “COMPOUNDS WITH DDX3 INHIBITORY ACTIVITY AND USES THEREOF” (UNIVERSITÀ DEGLI STUDI DI SIENA, priority 2009, published 2012).
